These results are taken from patent US20240092803A1, “BRIDGED COMPOUNDS AS KRAS G12D INHIBITOR AND DEGRADER AND THE USE THEREOF” (BEIGENE SWITZERLAND GMBH, priority 2021, published 2024).

Test [1] concerns the target KRAS G12D protein level in AsPC-1 cells (Homo sapiens (Human), UniProt P01116, G12D). Briefly: Western blotting assay in AsPC-1 cells. The conditions noted are these: 3 uM, 48 h compound treatment, Western blot. In kind it is cell-based. The procedure: AsPC-1 cell line was used in this study. Cells were maintained in RPMI-1640 supplemented 10% fetal bovine serum (Thermo Fisher), 50 units/mL penicillin and streptomycin (Thermo Fisher) and kept at 37° C. In a humidified atmosphere of 5% CO2 in air. Cells were reinstated from frozen stocks that were laid down within 30 passages from the original cells purchased. 400000 AsPC-1 cells per well in 1 mL culture medium were seed in the 12-well plate for 4 hours. Cells were treated with an appropriate dilution series of compounds. After 48h compound treatment, medium was aspirated, the cells were washed with PBS, and then 30 μL of 1× protein lysis buffer (Cell Signaling Technology) containing protease inhibitors (Merck) and phosphatase inhibitors (Sigma) was added. The cells were lysed, and after centrifugation, the supernatants were quantified by BCA Protein assay Kit (Thermo Fisher). 4× loading Buffer (Thermo Fisher) was added to equal amounts of total protein from each sample and heated at 95° C. for 5 minutes. […]
(In general: In western blotting, separated proteins are transferred to a membrane and probed.)

Test [2] has as its target KRAS G12D HiBiT in HEK293 KRAS-G12D NanoLuc cell pool (Homo sapiens (Human), UniProt P01116, G12D). The test is described as follows: KRAS G12D NanoLuc assay. In kind it is cell-based. The note with it: 24 h compound treatment. Here is the method:
HEK293 KRAS-G12D NanoLuc cell pool was used in this study. The cells were stable expressing KRAS G12D HiBiT and LgBiT. Cells were maintained in DMEM supplemented with 10% fetal bovine serum (Thermo Fisher), 50 units/mL penicillin and streptomycin (Thermo Fisher) and kept at 37° C. in a humidified atmosphere of 5% CO2 in air. Cells were reinstated from frozen stocks that were laid down within 30 passages from the cell pool was constructed. 20000 cells per well were seeded a 96-well White with Clear Flat bottom plate for 4 h. Cells were treated with a 10-point dilution series. The final compound concentration is from 0 to 10 μM. After 24 h compound treatment, added 20 μL of CellTiter-Fluor reagent (Promega) to plates, shook for 2 min, incubated at least 30 min in 37° C. Added 25 μL of NanoGlo Live cell reagent (Promega) to the same plate. shook by mini-shaker for 5 min. Measure Luminescence and Fluorescence (380-400nmEx/505nmEm) signals immediately using a PHERAstar FSX reader (BMG Labtech). DC50 determination was performed by fitting the curve of percent inhibition versus the log of the inhibitor concentration using Excel and GraphPad Prism 8.

With `Cc1ncsc1-c1ccc([C@H](C)NC(=O)[C@@H]2C[C@@H](O)CN2C(=O)[C@@H](NC(=O)CCOCCCN2CCC[C@H]2COc2nc3c(c(N4CC5CCC(C4)N5)n2)CCN(c2cccc4cccc(Cl)c24)C3)C(C)(C)C)cc1` [Example 17], the “KRAS G12D protein level decrease” value in test [1] is recorded as 40%. In test [2], this compound gave a DC50 of 0.708 µM and a Dmax of 80%.
